Each block holds one compound with its values, some of them ahead of it.
Key:
[1] = Inhibition of SERCA (unknown origin); parameters: species or system Homo sapiens
[2] = Inhibition of Sodium/potassium-transporting ATPase in porcine brain peincubated for 5 mins followed by addition of ATP and measured after 15 mins; type: tissue-based, Sus scrofa domesticus
[3] = Inhibition of Sodium/potassium-transporting ATPase in guinea pig brain peincubated for 5 mins followed by addition of ATP and measured after 15 mins; type: tissue-based, Cavia porcellus
[4] = Inhibition of Sodium/potassium-transporting ATPase in guinea pig heart peincubated for 5 mins followed by addition of ATP and measured after 15 mins; type: tissue-based, Cavia porcellus
[5] = Inhibition of Sodium/potassium-transporting ATPase in dog kidney peincubated for 5 mins followed by addition of ATP and measured after 15 mins; type: tissue-based, Canis lupus familiaris
[6] = test system: HeLa; experiment: Antiproliferative activity against human HeLa cells; type: functional, cell-based
[7] = biological target: Sarcoplasmic/endoplasmic reticulum calcium ATPase 1 (Mus musculus) (UniProt Q8R429); experiment: Inhibition of SERCA1 in C57BL/6 mouse primary neurons at 30 uM by UV-Vis spectrophotometric method relative to control
Sarcoplasmic/endoplasmic reticulum calcium ATPase 1 (Mus musculus), sequence (Q8R429 whole entry): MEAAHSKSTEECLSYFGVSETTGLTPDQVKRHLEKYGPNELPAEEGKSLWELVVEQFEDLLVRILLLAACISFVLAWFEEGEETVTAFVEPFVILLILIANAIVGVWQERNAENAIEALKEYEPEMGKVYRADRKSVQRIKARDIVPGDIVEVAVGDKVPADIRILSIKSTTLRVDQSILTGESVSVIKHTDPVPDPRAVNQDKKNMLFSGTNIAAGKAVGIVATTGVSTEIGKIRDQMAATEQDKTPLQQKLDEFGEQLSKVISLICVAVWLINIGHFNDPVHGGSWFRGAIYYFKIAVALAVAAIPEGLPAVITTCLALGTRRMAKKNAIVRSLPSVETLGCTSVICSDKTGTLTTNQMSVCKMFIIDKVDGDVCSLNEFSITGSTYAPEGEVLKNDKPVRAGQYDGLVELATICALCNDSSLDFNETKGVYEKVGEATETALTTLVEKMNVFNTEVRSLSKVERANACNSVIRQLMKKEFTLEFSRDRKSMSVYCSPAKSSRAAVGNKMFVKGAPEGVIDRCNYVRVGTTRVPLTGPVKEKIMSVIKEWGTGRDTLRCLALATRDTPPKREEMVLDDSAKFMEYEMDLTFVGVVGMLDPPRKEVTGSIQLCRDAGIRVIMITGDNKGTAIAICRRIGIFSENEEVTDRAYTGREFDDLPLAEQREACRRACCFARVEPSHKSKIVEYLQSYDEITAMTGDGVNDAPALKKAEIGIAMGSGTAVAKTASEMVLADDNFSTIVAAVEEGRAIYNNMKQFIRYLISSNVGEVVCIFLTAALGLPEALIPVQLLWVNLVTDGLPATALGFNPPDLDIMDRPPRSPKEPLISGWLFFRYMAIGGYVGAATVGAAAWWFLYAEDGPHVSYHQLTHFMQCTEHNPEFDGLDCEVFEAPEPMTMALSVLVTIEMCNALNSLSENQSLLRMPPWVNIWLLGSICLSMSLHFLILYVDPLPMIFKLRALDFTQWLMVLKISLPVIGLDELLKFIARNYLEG

[8] = biological target: Sarcoplasmic/endoplasmic reticulum calcium ATPase 2 (Mus musculus) (UniProt O55143); experiment: Inhibition of SERCA2 in C57BL/6 mouse primary neurons at 30 uM by UV-Vis spectrophotometric method relative to control
Sarcoplasmic/endoplasmic reticulum calcium ATPase 2 (Mus musculus), sequence (O55143 whole entry): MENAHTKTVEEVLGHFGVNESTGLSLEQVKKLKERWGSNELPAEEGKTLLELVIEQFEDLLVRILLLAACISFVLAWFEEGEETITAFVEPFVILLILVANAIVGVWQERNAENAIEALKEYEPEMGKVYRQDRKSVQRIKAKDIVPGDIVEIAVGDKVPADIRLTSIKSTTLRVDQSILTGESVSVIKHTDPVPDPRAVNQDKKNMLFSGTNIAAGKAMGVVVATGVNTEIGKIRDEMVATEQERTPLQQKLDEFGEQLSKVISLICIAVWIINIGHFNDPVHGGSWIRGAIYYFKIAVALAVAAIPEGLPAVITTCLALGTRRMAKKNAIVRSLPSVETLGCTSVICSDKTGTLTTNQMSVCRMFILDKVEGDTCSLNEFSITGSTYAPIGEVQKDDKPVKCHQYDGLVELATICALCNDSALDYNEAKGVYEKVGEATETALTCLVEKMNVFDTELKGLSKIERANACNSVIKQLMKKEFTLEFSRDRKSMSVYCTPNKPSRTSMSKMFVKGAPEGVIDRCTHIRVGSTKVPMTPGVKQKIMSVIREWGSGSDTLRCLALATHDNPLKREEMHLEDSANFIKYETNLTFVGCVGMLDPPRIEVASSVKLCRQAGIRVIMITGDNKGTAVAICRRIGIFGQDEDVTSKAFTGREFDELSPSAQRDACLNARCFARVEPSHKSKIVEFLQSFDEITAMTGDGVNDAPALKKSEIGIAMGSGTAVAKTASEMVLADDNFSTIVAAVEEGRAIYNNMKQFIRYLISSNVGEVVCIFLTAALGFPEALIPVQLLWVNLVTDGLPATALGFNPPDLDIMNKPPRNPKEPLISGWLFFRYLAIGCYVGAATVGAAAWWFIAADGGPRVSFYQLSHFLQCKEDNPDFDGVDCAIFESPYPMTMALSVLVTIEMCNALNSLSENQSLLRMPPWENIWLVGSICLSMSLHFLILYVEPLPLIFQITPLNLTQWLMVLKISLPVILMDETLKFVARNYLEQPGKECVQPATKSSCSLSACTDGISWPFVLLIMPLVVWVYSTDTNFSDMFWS

[9] = Inhibition of porcine cerebellar microsomes SERCA2b incubated for 10 mins by enzyme-coupled method; parameters: species or system Sus scrofa domesticus, Cerebellum
[10] = biological target: T1, Sarcoplasmic/endoplasmic reticulum calcium ATPase 1 (Oryctolagus cuniculus, UniProt P04191); experiment: Inhibition of rabbit skeletal muscle microsomes SERCA1a incubated for 10 mins by enzyme-coupled method
T1 sequence (P04191 whole entry): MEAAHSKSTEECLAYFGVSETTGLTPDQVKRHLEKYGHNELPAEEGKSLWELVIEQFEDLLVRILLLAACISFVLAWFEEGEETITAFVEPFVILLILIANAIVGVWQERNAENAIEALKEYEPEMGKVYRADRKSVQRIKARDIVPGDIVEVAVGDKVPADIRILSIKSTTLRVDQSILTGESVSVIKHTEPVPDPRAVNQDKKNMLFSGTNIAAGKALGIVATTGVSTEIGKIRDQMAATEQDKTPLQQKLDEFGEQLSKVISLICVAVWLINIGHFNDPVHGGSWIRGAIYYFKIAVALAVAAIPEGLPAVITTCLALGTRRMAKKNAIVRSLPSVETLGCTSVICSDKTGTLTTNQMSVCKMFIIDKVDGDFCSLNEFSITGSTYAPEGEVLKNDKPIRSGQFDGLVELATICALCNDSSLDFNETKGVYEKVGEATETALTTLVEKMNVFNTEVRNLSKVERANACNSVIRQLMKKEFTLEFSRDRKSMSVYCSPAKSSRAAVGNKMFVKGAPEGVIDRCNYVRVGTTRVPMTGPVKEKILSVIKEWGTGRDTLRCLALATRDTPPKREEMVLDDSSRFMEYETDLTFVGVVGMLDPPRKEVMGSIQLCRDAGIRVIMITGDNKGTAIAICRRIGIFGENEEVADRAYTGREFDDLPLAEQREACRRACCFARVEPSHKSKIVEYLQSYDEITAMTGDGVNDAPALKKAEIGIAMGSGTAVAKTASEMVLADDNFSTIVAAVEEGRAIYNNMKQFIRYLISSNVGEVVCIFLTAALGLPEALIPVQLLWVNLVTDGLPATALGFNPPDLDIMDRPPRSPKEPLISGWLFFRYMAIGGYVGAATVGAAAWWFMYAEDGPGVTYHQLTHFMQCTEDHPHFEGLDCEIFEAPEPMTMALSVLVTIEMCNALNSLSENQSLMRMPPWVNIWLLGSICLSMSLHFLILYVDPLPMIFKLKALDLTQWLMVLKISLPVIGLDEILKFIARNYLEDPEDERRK

[11] = Inhibition of fish liver microsomes SERCA by enzyme-coupled method; parameters: species or system Squalius cephalus
[12] = biological target: T1, Sarcoplasmic/endoplasmic reticulum calcium ATPase 1; experiment: Inhibition of rabbit SERCA1a
[13] = biological target: T1, Sarcoplasmic/endoplasmic reticulum calcium ATPase 1; experiment: Inhibition of SERCA1a in rabbit microsomes
[14] = biological target: Sarcoplasmic/endoplasmic reticulum calcium ATPase 2 (Mus musculus, UniProt O55143); experiment: Inhibition of SERCA2b in mouse testicular microsomes; parameters: species or system Testis
Sarcoplasmic/endoplasmic reticulum calcium ATPase 2, sequence (O55143 whole entry): as the sequence (O55143 whole entry) above

[15] = biological target: Sarcoplasmic/endoplasmic reticulum calcium ATPase 3 (Mus musculus, UniProt Q64518); experiment: Inhibition of SERCA3 in mouse testicular microsomes; parameters: species or system Testis
Sarcoplasmic/endoplasmic reticulum calcium ATPase 3, sequence (Q64518 whole entry): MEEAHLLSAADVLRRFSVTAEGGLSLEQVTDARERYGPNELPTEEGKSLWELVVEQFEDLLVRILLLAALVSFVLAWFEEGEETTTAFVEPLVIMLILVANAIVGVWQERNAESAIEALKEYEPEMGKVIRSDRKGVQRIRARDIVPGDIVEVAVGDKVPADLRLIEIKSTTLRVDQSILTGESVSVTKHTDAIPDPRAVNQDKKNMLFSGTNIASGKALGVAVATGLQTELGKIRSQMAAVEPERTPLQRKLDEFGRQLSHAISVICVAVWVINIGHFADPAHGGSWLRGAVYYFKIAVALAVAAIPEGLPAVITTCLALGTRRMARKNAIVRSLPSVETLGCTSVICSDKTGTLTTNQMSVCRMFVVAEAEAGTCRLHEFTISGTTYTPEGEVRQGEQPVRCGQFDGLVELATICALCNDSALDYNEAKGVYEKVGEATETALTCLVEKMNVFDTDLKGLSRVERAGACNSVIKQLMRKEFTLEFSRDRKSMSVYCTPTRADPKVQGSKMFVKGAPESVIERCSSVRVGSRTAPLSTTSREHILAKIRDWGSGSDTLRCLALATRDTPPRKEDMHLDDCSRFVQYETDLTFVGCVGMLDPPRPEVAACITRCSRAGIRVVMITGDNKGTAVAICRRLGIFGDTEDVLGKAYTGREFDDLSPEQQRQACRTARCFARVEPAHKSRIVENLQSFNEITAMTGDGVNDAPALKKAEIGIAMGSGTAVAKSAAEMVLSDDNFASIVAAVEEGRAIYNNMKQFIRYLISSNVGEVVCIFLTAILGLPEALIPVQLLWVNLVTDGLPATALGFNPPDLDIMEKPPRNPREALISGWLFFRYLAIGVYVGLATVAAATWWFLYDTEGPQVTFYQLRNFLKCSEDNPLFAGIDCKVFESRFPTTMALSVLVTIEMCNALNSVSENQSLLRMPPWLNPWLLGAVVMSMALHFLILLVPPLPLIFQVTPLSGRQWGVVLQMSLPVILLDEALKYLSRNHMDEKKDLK

[16] = biological target: Sarcoplasmic/endoplasmic reticulum calcium ATPase 1 (Homo sapiens, UniProt O14983); experiment: Inhibition of SERCA1a (unknown origin) incubated for 10 mins by enzyme-coupled method
Sarcoplasmic/endoplasmic reticulum calcium ATPase 1 (Homo sapiens, UniProt O14983), sequence (O14983 whole entry): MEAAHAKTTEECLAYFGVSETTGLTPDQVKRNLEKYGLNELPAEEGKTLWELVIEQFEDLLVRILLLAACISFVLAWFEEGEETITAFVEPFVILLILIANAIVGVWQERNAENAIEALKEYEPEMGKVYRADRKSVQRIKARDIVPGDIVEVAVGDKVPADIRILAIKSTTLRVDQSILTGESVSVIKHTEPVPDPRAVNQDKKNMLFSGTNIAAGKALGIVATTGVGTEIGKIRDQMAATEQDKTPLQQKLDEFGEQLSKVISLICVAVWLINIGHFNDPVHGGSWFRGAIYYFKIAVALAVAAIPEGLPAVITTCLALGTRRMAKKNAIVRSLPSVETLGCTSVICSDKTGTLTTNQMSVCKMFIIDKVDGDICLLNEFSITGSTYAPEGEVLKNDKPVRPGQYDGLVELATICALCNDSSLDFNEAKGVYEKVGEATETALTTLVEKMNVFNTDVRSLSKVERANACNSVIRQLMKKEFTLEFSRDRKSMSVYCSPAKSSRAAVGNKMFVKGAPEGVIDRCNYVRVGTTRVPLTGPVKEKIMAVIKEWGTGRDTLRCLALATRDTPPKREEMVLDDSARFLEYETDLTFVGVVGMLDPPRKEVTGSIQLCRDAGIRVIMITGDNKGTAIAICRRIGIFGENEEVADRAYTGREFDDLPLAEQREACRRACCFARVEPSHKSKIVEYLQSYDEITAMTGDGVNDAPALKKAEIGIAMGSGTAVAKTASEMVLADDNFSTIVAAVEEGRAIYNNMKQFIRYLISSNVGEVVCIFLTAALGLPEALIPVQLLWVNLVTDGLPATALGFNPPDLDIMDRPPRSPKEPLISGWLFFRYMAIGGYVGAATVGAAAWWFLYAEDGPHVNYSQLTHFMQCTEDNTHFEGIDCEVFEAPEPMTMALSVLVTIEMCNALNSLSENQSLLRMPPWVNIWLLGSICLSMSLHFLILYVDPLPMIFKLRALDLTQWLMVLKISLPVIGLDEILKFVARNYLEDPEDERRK

[17] = Inhibition of rabbit skeletal muscle microsomes SERCA incubated for 3 mins by [gamma32P]ATP based radiometric assay; parameters: species or system Oryctolagus cuniculus
[18] = biological target: T1, Sarcoplasmic/endoplasmic reticulum calcium ATPase 1; experiment: Inhibition of rabbit skeletal muscle microsomes SERCA1a
[19] = biological target: Sodium/potassium-transporting ATPase; experiment: Competitive inhibition of Sodium/potassium-transporting ATPase (unknown origin) by liquid scintillation counting method; type: protein-complex assay, Homo sapiens
[20] = Competitive inhibition of SERCA (unknown origin) by liquid scintillation counting method; parameters: species or system Homo sapiens
[21] = Inhibition of SERCA in chicken cerebellar microsomes; parameters: species or system Gallus gallus, Cerebellum
[22] = biological target: T1, Sarcoplasmic/endoplasmic reticulum calcium ATPase 1; experiment: Inhibition of rabbit SERCA1a incubated for 10 mins by enzyme-coupled method
[23] = species: Oryctolagus cuniculus; experiment: Inhibition of rabbit kidney Sodium/potassium-transporting ATPase by PK/LDH method
[24] = species: Oryctolagus cuniculus; experiment: Inhibition of rabbit kidney Sodium/potassium-transporting ATPase by malachite green based colorimetric method
[25] = biological target: Potassium-transporting ATPase (Sus scrofa, UniProt P19156); experiment: Inhibition of pig gastric mucosa Potassium-transporting ATPase by malachite green based colorimetric method; type: protein-complex assay, Sus scrofa domesticus

Compound: CC1=CCC[C@@H]2[C@@](C)(CC/C(C)=C/Cn3c[n+](C)c4ncnc(N)c43)[C@H](C)CC[C@@]12C
IC50 [1]: 5.58 µM
IC50 [2]: 11 to 29 µM
IC50 [3]: 11 to 29 µM
IC50 [4]: 11 to 29 µM
IC50 [5]: 11 to 29 µM

IC50 [1]: 50 µM
IC50 [6]: 10 µM
inhibition [7]: 10%
inhibition [8]: 18%
Compound: C[C@H]1O[C@@H](O[C@H]2CC[C@@]3(C)[C@@H](CC[C@]4(C)[C@@H]3C=C[C@]35OC[C@@]6(CCC(C)(C)C[C@H]63)[C@H](O)C[C@]54C)[C@]2(C)CO)[C@H](O)[C@@H](O[C@@H]2O[C@H](CO)[C@@H](O)[C@H](O)[C@H]2O)[C@H]1O

Compound: Clc1ccc(C(c2ccc(Cl)cc2)[n+]2ccn(CC(OCc3ccc(Cl)cc3Cl)c3ccc(Cl)cc3Cl)c2)cc1 (configuration not stated) [CALMIDAZOLIUM CHLORIDE]
IC50 [9]: 0.5 µM
IC50 [10]: 0.5 µM

Compound: CCCCCCCCCc1ccc(O)cc1 [4-NONYLPHENOL]
IC50 [11]: 4 µM
IC50 [12]: 0.35 to 6 µM
IC50 [13]: 0.35 to 6 µM
IC50 [14]: 0.35 to 6 µM
IC50 [15]: 0.35 to 6 µM

Compound: COc1ccc2c(c[n+](C)c3c4cc5c(cc4ccc23)OCO5)c1OC [CHELERYTHRINE]
IC50 [10]: 1.2 µM
IC50 [16]: 27 µM
IC50 [17]: 1.5 µM

IC50 [18]: 29 µM
Ki [19]: 0.32 µM
Ki [20]: 20 µM
Compound: N=C(N)SCc1cc(CSC(=N)N)c(Br)c(CSC(=N)N)c1Br

Compound: SODIUM ORTHOVANAD
IC50 [21]: 10 to 100 µM

Compound: C/C=C(\C)C(=O)O[C@@H]1C[C@H]2C(=C1C)[C@@H]1OC(=O)[C@@](C)(O)[C@@]1(O)[C@@H](OC(=O)[C@H](C)CC)C[C@@]2(C)OC(C)=O
IC50 [22]: 20 µM

K0.5 [23]: 24 to 30 µM
K0.5 [24]: 24 to 30 µM
IC50 [25]: 5.2 µM
Compound: Clc1ccccc1C(c1ccccc1)(c1ccccc1)n1ccnc1 [CLOTRIMAZOLE]
